# According to the OPERA property sets (Mansouri et al. 2018):
log10 OH rate constant (cm³/molecule/s) (25.0 °C),Compound,log10 OH rate constant (cm³/molecule/s) (24.0 °C)
-11,CCCCCO,
-10.8,CCCCOC,
-11.2,COCCBr,
-11.1,CCCOC(=O)CCC,
-11.3,CCCC(C)C,
-11.1,CCc1ccccc1,
-10.9,CCCCCCO,
-11.1,CCCCCOC(C)=O,
-13.3,COC(=O)C(F)(F)F,
-11.3,CCCC(=O)OCC,
-10.4,C1=CC2CCC1CC2,
-13.1,C1CC1,
-11,C=O,
-10.7,CCCOCCC,
-11.1,CCCCO,
-12.3,CC(=O)OC(C)(C)C,
-10.9,CCCCCCCO,
-10.2,C1=CCCC1,
-11.5,O=C1CCCC1,
-10.5,CCCCCOCCCCC,
-10.1,Cc1cccc(O)c1C,
-9.77,C=C(C)[C@H]1CC=C(C)CC1,
-11,CCCCCCC(C)=O,
-11.6,CCCOC=O,
-9.95,Cc1cc(C)cc(O)c1,
-10.1,CCC=C(C)C,

log10 OH rate constant (cm³/molecule/s) (25.0 °C),Compound,log10 OH rate constant (cm³/molecule/s) (24.0 °C)
-11.3,CC(C)O,
-11.3,COCCCl,
-11.7,CCC1CO1 (configuration not stated),
-11.2,CC(C)C(C)C(C)C,
-10.3,CC1=CCC2CC1C2(C)C (configuration not stated),
-15.5,FC(F)F,
-10.5,C=CCCC,
-11.5,CCCC(=O)OC,
-14.5,FC(F)OC(F)(F)F,
-10.9,C#CCCCC,
-10.7,CCCCOCC,
-10.2,Cc1cccc(C)c1O,
-14.6,CC(F)(F)C(F)(Cl)Cl,
-10,C=CC/C=C/C,
-10.2,C=C(C)CCC,
-11.1,CCOC(C)(C)C,
-10,C=CCCC(=C)C,
-10.6,C=C(C)C(=O)OCCOCC,
-10.1,C1=CCCCCC1,
-10.7,CCCOCCO,
-14.6,FC1C(F)(F)OC1(F)F,
-10.2,C/C=C\C,
-10.2,C/C=C/C(C)C,
-10.1,Cc1ccc(C)c(O)c1,
-11.5,CCCCOC=O,
-12.2,COCC(F)(F)F,

log10 OH rate constant (cm³/molecule/s) (25.0 °C),Compound,log10 OH rate constant (cm³/molecule/s) (24.0 °C)
-13.7,COC(F)(F)F,
-10.2,CC=CCC,
-10.8,C1CC[C@H]2CCC[C@@H]2C1 (racemic),
-10.7,CCCCCCCCCCCCCCC,
-13.8,FC(F)(Cl)CCl,
-10.9,CCOCCOC(=O)C(C)C,
-10.5,CCCCOCCCC,
-11.6,COCC(Cl)Cl,
-11.7,CCOC(=O)CC,
-11.3,CC(C)(C)CO,
-10.9,CCCCCCCCCCC,
-10.6,C=CC,
-11.5,COC,
-9.99,CCC(C)=C(C)C,
,CSSC,-9.64
-10.1,CC1=CCC2C(C1)C2(C)C (configuration not stated),
-10.1,C=CCC(=C)C,
-11.4,CCCOC(=O)CC,
-10.5,C=CCC,
-11.3,CCCO,
-12.6,COC=O,
-11,CC(C)OC(C)C,
-10.5,CCOC=CC(=O)OCC,
-10.4,C=CCCCOC(C)=O,
-12.1,CC(C)(C)OC=O,

Compound,log10 OH rate constant (cm³/molecule/s) (25.0 °C),log10 OH rate constant (cm³/molecule/s) (24.0 °C)
COP(=O)(SC)SC,-11,
FCC(F)F,-13.7,
CC(Cl)(Cl)Cl,-14,
Nc1ccccc1,-9.95,
O=CCl,-12.5,
FC(F)(F)C(Cl)Cl,-13.4,
FC(F)OCC(F)(F)F,-13.9,
CCCCCO[N+](=O)[O-],-11.5,
C=C(Cl)Cl,-11,
CC(F)(F)Cl,-14.5,
FC(Cl)C(F)(F)F (configuration not stated),-14,
Cc1ccc(O)cc1C,-10.1,
Clc1cccc(-c2ccccc2)c1,-11.3,
COP(=O)(OC)SC,-11,
FC(C(F)C(F)(F)C(F)(F)F)C(F)(F)F (configuration not stated),-14.5,
COC(C)(C)C,-11.5,
ClCC(Cl)(Cl)Cl,-13.7,
O=[N+]([O-])OC1CCCCC1,-11.5,
CC(C)=O,-12.7,
CCC[N+](=O)[O-],-12.4,
ClCC(Br)CBr (configuration not stated),-12.4,
Clc1ccc(Cl)c(Cl)c1,-12.3,
CCCC[N+](=O)[O-],-11.8,

Compound,log10 OH rate constant (cm³/molecule/s) (25.0 °C),log10 OH rate constant (cm³/molecule/s) (24.0 °C)
CC(C)CCO[N+](=O)[O-],-11.7,
CC(=O)Cl,-14,
Clc1ccccc1-c1ccccc1,-11.5,
Cc1ccc(O)c(C)c1,-10.1,
Fc1c(F)c(F)c(F)c(F)c1F,-12.8,
CO,-12,
Cl/C=C\CCl,-11,
FCC(F)(F)F,-14.3,
CCC#N,-12.7,
CC(Cl)Cl,-12.6,
C[N+](=O)[O-],-12.9,
CC(C)(C)CO[N+](=O)[O-],-12.1,
CCOCCO,-10.8,
C=CC#N,-11.4,
C=CCl,-11.2,
CCOP(=O)(OCC)OCC,-10.3,
COP(=O)(OC)OC,-11.1,
CCCCOC(C)=O,-11.3,
Cl/C=C\Cl,-11.6,
ClCC(Cl)Cl,-12.7,
ClCCCl,-12.6,
C=CC(=O)OCC,-10.8,
